Laboratory results published in patent US20230085307A1, “PYRIDAZINONE COMPOUND AND HERBICIDE” (NISSAN CHEMICAL CORPORATION, priority 2019, published 2023).

How the values were obtained:
rice flat sedge = test: Test Example 3: herbicidal effect by foliage application, Wagner pot (Table 18, symbol E); format: in vivo, rice flat sedge (Cyperus iria); settings: 320 g/ha
How it was run: (§1)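 Plants were sown in alluvial soil held under 0.1–0.5 cm standing water and grown 14 days in a greenhouse at 25–30 °C. An emulsifiable formulation, water-diluted to the set dose, was then sprayed onto the foliage, and effects were scored three weeks later using previously defined criteria.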

Chinese sprangletop = test: Test Example 3: herbicidal effect by foliage application, Wagner pot (Table 18, symbol D); format: in vivo, chinese sprangletop (Leptochloa chinensis); settings: 320 g/ha
How it was run: as §1

chickweed [1] = test: Test Example 5: herbicidal effect by foliage application, plastic box (Table 20, symbol P); format: in vivo, common chickweed (Stellaria media); settings: foliage application
How it was run: (§2)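 Foliar spray test: emulsion formulation diluted in water to a set application rate, sprayed onto 14-day-old plants raised in diluvial soil at 25° C to 30° C under glass. Both herbicidal effect and crop effect rated visually three weeks later.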

southern crabgrass [2] = test: Test Example 4: herbicidal effect by soil treatment (Table 19, symbol F); format: in vivo, southern crabgrass (Digitaria ciliaris)
How it was run: (§3)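 Step 1: sow seeds in sterilized diluvial soil, cover ~1.5 cm. Step 2: spray diluted emulsion onto soil surface at predetermined rate. Step 3: greenhouse, 25–30° C, three weeks. Step 4: grade effect on each plant by earlier criteria.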

windgrass [3] = test: Test Example 4: herbicidal effect by soil treatment (Table 19, symbol L); format: in vivo, windgrass (Apera spica-venti)
How it was run: as §3

chickweed [4] = test: Test Example 4: herbicidal effect by soil treatment (Table 19, symbol P); format: in vivo, common chickweed (Stellaria media)
How it was run: as §3

green foxtail [5] = test: Test Example 5: herbicidal effect by foliage application, plastic box (Table 20, symbol G); format: in vivo, green foxtail (Setaria viridis); settings: foliage application
How it was run: as §2

wild oat [6] = test: Test Example 5: herbicidal effect by foliage application, plastic box (Table 20, symbol I); format: in vivo, wild oat (Avena fatua); settings: foliage application
How it was run: as §2

blackgrass [7] = test: Test Example 5: herbicidal effect by foliage application, plastic box (Table 20, symbol J); format: in vivo, blackgrass (Alopecurus myosuroides); settings: foliage application
How it was run: as §2

persian speedwell [8] = test: Test Example 4: herbicidal effect by soil treatment (Table 19, symbol R); format: in vivo, Persian speedwell (Veronica persica)
How it was run: as §3

redroot pigweed [9] = test: Test Example 5: herbicidal effect by foliage application, plastic box (Table 20, symbol N); format: in vivo, redroot pigweed (Amaranthus retroflexus); settings: foliage application
How it was run: as §2

velvetleaf [10] = test: Test Example 5: herbicidal effect by foliage application, plastic box (Table 20, symbol M); format: in vivo, velvetleaf (Abutilon theophrasti); settings: foliage application
How it was run: as §2

green foxtail [11] = test: Test Example 4: herbicidal effect by soil treatment (Table 19, symbol G); format: in vivo, green foxtail (Setaria viridis)
How it was run: as §3

southern crabgrass [12] = test: Test Example 5: herbicidal effect by foliage application, plastic box (Table 20, symbol F); format: in vivo, southern crabgrass (Digitaria ciliaris); settings: foliage application
How it was run: as §2

barnyard grass [13] = test: Test Example 4: herbicidal effect by soil treatment (Table 19, symbol H); format: in vivo, barnyard grass (Echinochloa crus-galli)
How it was run: as §3

persian speedwell [14] = test: Test Example 5: herbicidal effect by foliage application, plastic box (Table 20, symbol R); format: in vivo, Persian speedwell (Veronica persica); settings: foliage application
How it was run: as §2

lambsquarters [15] = test: Test Example 4: herbicidal effect by soil treatment (Table 19, symbol O); format: in vivo, lambsquarters (Chenopodium album)
How it was run: as §3

Italian ryegrass [16] = test: Test Example 4: herbicidal effect by soil treatment (Table 19, symbol K); format: in vivo, Italian ryegrass (Lolium multiflorum)
How it was run: as §3

redroot pigweed [17] = test: Test Example 4: herbicidal effect by soil treatment (Table 19, symbol N); format: in vivo, redroot pigweed (Amaranthus retroflexus)
How it was run: as §3

lambsquarters [18] = test: Test Example 5: herbicidal effect by foliage application, plastic box (Table 20, symbol O); format: in vivo, lambsquarters (Chenopodium album); settings: foliage application
How it was run: as §2

velvetleaf [19] = test: Test Example 4: herbicidal effect by soil treatment (Table 19, symbol M); format: in vivo, velvetleaf (Abutilon theophrasti)
How it was run: as §3

windgrass [20] = test: Test Example 5: herbicidal effect by foliage application, plastic box (Table 20, symbol L); format: in vivo, windgrass (Apera spica-venti); settings: foliage application
How it was run: as §2

wild oat [21] = test: Test Example 4: herbicidal effect by soil treatment (Table 19, symbol I); format: in vivo, wild oat (Avena fatua)
How it was run: as §3

Italian ryegrass [22] = test: Test Example 5: herbicidal effect by foliage application, plastic box (Table 20, symbol K); format: in vivo, Italian ryegrass (Lolium multiflorum); settings: foliage application
How it was run: as §2

barnyard grass [23] = test: Test Example 3: herbicidal effect by foliage application, Wagner pot (Table 18, symbol H); format: in vivo, barnyard grass (Echinochloa crus-galli); settings: 320 g/ha
How it was run: as §1

blackgrass [24] = test: Test Example 4: herbicidal effect by soil treatment (Table 19, symbol J); format: in vivo, blackgrass (Alopecurus myosuroides)
How it was run: as §3

barnyard grass [25] = test: Test Example 5: herbicidal effect by foliage application, plastic box (Table 20, symbol H); format: in vivo, barnyard grass (Echinochloa crus-galli); settings: foliage application
How it was run: as §2

[26] = 320 g/ha, evaluated three weeks after application
[27] = AAH 320 g/ha, three weeks after application

## Cc1nn(C)c(=O)c(-c2c(-c3ccc(OCC#N)cc3)sc3ccc(F)cc23)c1O [2-066]
Rice flat sedge
  herbicidal effect on E (rice flat sedge), rating 0-5: 1 (Herbicidal rate of 5% or more and less than 20%)
Chinese sprangletop
  herbicidal effect on D (Chinese sprangletop), rating 0-5: 3 (Herbicidal rate of 40% or more and less than 70%)
Chickweed [1]; [26]
  herbicidal effect on P: chickweed: 5 (Herbicidal rate of 90% or more (almost completely withered))
Southern crabgrass [2]; 320 g/ha
  herbicidal effect rating, F: southern crabgrass: 0 (Herbicidal rate of 5% or less (almost no effect))
Windgrass [3]; 320 g/ha
  herbicidal effect rating, L: windgrass: 0 (Herbicidal rate of 5% or less (almost no effect))
Chickweed [4]; 320 g/ha
  herbicidal effect rating, P: chickweed: 4 (Herbicidal rate of 70% or more and less than 90%)
Green foxtail [5]; [26]
  herbicidal effect on G: green foxtail: 4 (Herbicidal rate of 70% or more and less than 90%)
Wild oat [6]; [26]
  herbicidal effect on I: wild oat: 0 (Herbicidal rate of 5% or less (almost no effect))
Blackgrass [7]; [26]
  herbicidal effect on J: blackgrass: 0 (Herbicidal rate of 5% or less (almost no effect))
Persian speedwell [8]; 320 g/ha
  herbicidal effect rating, R: persian speedwell: 4 (Herbicidal rate of 70% or more and less than 90%)
Redroot pigweed [9]; [26]
  herbicidal effect on N: redroot pigweed: 5 (Herbicidal rate of 90% or more (almost completely withered))
Velvetleaf [10]; [26]
  herbicidal effect on M: velvetleaf: 3 (Herbicidal rate of 40% or more and less than 70%)
Green foxtail [11]; 320 g/ha
  herbicidal effect rating, G: green foxtail: 0 (Herbicidal rate of 5% or less (almost no effect))
Southern crabgrass [12]; [26]
  herbicidal effect on F: southern crabgrass: 3 (Herbicidal rate of 40% or more and less than 70%)
Barnyard grass [13]; 320 g/ha
  herbicidal effect rating, H: barnyard grass: 0 (Herbicidal rate of 5% or less (almost no effect))
Persian speedwell [14]; [26]
  herbicidal effect on R: persian speedwell: 5 (Herbicidal rate of 90% or more (almost completely withered))
Lambsquarters [15]; 320 g/ha
  herbicidal effect rating, O: lambsquarters: 0 (Herbicidal rate of 5% or less (almost no effect))
Italian ryegrass [16]; 320 g/ha
  herbicidal effect rating, K: Italian ryegrass: 0 (Herbicidal rate of 5% or less (almost no effect))
Redroot pigweed [17]; 320 g/ha
  herbicidal effect rating, N: redroot pigweed: 0 (Herbicidal rate of 5% or less (almost no effect))
Lambsquarters [18]; [26]
  herbicidal effect on O: lambsquarters: 4 (Herbicidal rate of 70% or more and less than 90%)
Velvetleaf [19]; 320 g/ha
  herbicidal effect rating, M: velvetleaf: 0 (Herbicidal rate of 5% or less (almost no effect))
Windgrass [20]; [26]
  herbicidal effect on L: windgrass: 0 (Herbicidal rate of 5% or less (almost no effect))
Wild oat [21]; 320 g/ha
  herbicidal effect rating, I: wild oat: 0 (Herbicidal rate of 5% or less (almost no effect))
Italian ryegrass [22]; [26]
  herbicidal effect on K: Italian ryegrass: 1 (Herbicidal rate of 5% or more and less than 20%)
Barnyard grass [23]
  herbicidal effect on H (barnyard grass), rating 0-5: 4 (Herbicidal rate of 70% or more and less than 90%)
Blackgrass [24]; 320 g/ha
  herbicidal effect rating, J: blackgrass: 0 (Herbicidal rate of 5% or less (almost no effect))
Barnyard grass [25]; [26]
  herbicidal effect on H: barnyard grass: 2 (Herbicidal rate of 20% or more and less than 40%)

## Cc1nn(C)c(=O)c(-c2c(-c3ccccc3OCC(F)F)sc3ccccc23)c1O [1-116]
Rice flat sedge
  herbicidal effect on E (rice flat sedge), rating 0-5: 4 (Herbicidal rate of 70% or more and less than 90%)
Chinese sprangletop
  herbicidal effect on D (Chinese sprangletop), rating 0-5: 2 (Herbicidal rate of 20% or more and less than 40%)
Chickweed [1]; [27]
  P: chickweed, herbicidal effect: 5 (Herbicidal rate of 90% or more (almost completely withered))
Southern crabgrass [2]; AAH 320 g/ha
  F: southern crabgrass, herbicidal effect rating: 0 (Herbicidal rate of 5% or less (almost no effect))
Windgrass [3]; AAH 320 g/ha
  L: windgrass, herbicidal effect rating: 3 (Herbicidal rate of 40% or more and less than 70%)
Chickweed [4]; AAH 320 g/ha
  P: chickweed, herbicidal effect rating: 5 (Herbicidal rate of 90% or more (almost completely withered))
Green foxtail [5]; [27]
  G: green foxtail, herbicidal effect: 5 (Herbicidal rate of 90% or more (almost completely withered))
Wild oat [6]; [27]
  I: wild oat, herbicidal effect: 4 (Herbicidal rate of 70% or more and less than 90%)
Blackgrass [7]; [27]
  J: blackgrass, herbicidal effect: 4 (Herbicidal rate of 70% or more and less than 90%)
Persian speedwell [8]; AAH 320 g/ha
  R: persian speedwell, herbicidal effect rating: 5 (Herbicidal rate of 90% or more (almost completely withered))
Redroot pigweed [9]; [27]
  N: redroot pigweed, herbicidal effect: 5 (Herbicidal rate of 90% or more (almost completely withered))
Velvetleaf [10]; [27]
  M: velvetleaf, herbicidal effect: 5 (Herbicidal rate of 90% or more (almost completely withered))
Green foxtail [11]; AAH 320 g/ha
  G: green foxtail, herbicidal effect rating: 0 (Herbicidal rate of 5% or less (almost no effect))
Southern crabgrass [12]; [27]
  F: southern crabgrass, herbicidal effect: 4 (Herbicidal rate of 70% or more and less than 90%)
Barnyard grass [13]; AAH 320 g/ha
  H: barnyard grass, herbicidal effect rating: 0 (Herbicidal rate of 5% or less (almost no effect))
Persian speedwell [14]; [27]
  R: persian speedwell, herbicidal effect: 5 (Herbicidal rate of 90% or more (almost completely withered))
Lambsquarters [15]; AAH 320 g/ha
  O: lambsquarters, herbicidal effect rating: 3 (Herbicidal rate of 40% or more and less than 70%)
Italian ryegrass [16]; AAH 320 g/ha
  K: Italian ryegrass, herbicidal effect rating: 0 (Herbicidal rate of 5% or less (almost no effect))
Redroot pigweed [17]; AAH 320 g/ha
  N: redroot pigweed, herbicidal effect rating: 5 (Herbicidal rate of 90% or more (almost completely withered))
Lambsquarters [18]; [27]
  O: lambsquarters, herbicidal effect: 4 (Herbicidal rate of 70% or more and less than 90%)
Velvetleaf [19]; AAH 320 g/ha
  M: velvetleaf, herbicidal effect rating: 2 (Herbicidal rate of 20% or more and less than 40%)
Windgrass [20]; [27]
  L: windgrass, herbicidal effect: 5 (Herbicidal rate of 90% or more (almost completely withered))
Wild oat [21]; AAH 320 g/ha
  I: wild oat, herbicidal effect rating: 1 (Herbicidal rate of 5% or more and less than 20%)
Italian ryegrass [22]; [27]
  K: Italian ryegrass, herbicidal effect: 2 (Herbicidal rate of 20% or more and less than 40%)
Barnyard grass [23]
  herbicidal effect on H (barnyard grass), rating 0-5: 5 (Herbicidal rate of 90% or more (almost completely withered))
Blackgrass [24]; AAH 320 g/ha
  J: blackgrass, herbicidal effect rating: 1 (Herbicidal rate of 5% or more and less than 20%)
Barnyard grass [25]; [27]
  H: barnyard grass, herbicidal effect: 4 (Herbicidal rate of 70% or more and less than 90%)
